{
  "source": "PubChem BioAssay AID2060904",
  "about": "(Molecular Pharmacology Branch, DTP, NCI, 2025)",
  "system": "349418-098-R-PDC complex spheroid viability",
  "experiment": "Anticancer human tumor 349418-098-R-PDC patient-derived lung adenocarcinoma cell line growth inhibition [RAS]",
  "conditions": "for pIC50: curve of first compound; for viability, T/C: stronger effect = lower value",
  "excerpt": "RAS pathway inhibitors in Combinations in Complex Spheroids\nA high-throughput screen of multi-cell type tumor spheroids was designed to identify active combinations of RAS pathway inhibitors and targeted small molecules. Complex spheroids include a stromal component modeled by human endothelial cells (HUVEC) and fibroblasts modeled by human mesenchymal stem cells (MSCs). The concentration ranges selected for each drug and investigational agent were based upon clinically achievable concentrations if the clinical Cmax of the agent was known.\nCompounds. The drugs and investigational agents: abemaciclib (NSC768073), cobimetinib (NSC768068), divarasib (GDC6063, NSC841802), docetaxel (NSC628503), GDC-1971 (RLY-1971, NSC841576), gemcitabine (NSC613327), inavolisib (NSC800729), ipatasertib (NSC767898), KB-0742 (NSC834161), MRTX-1133 (NSC836407), osimertinib (NSC779217), RMC-4630 (NSC839698), RMC-6236 (NSC851965), RMC-6291 (NSC852671), Ro-3306 (NSC812927), sapanisertib (NSC764658), SN-38 (NSC673596), staurosporine (NSC755774), SY5609 (NSC837396), and tovorafenib (DAY101, NSC766906), were obtained from the National Cancer Institute (NCI) Developmental Therapeutics Program Chemical Repository. The FDA-approved anticancer drug set is available from the NCI Developmental Therapeutics Program. […] The stock solutions were prepared in dimethyl sulfoxide (DMSO, Sigma-Aldrich, St. Louis, MO, cat. D2650) at 800-fold the tested concentration and stored at -70 degrees C prior to their use. All drugs and investigational agents were tested over a range starting from a high concentration at or near the clinical Cmax and decreasing in half-log increments. If the clinical Cmax for an agent had not been determined, the highest concentration tested was 10 microM.\nCell Culture. All cells were maintained in an incubator at 37 degrees C and 5% CO2 with 95% humidity. The PDC lines were cultured according to standard operating procedures established by the NCI PDMR. All PDCs were thawed and cultured in Matrigel-coated flasks prepared with a working solution of 1X Ham's F-12 nutrient mix, without supplementation (Invitrogen, Waltham, MA, cat. 11765054), 100 U/mL penicillin-streptomycin (Invitrogen, cat. 15140122), and 2.5% Matrigel (Corning Inc., Corning, NY, cat. 354248) for the first three passages. The 362531-283-R-J2-PDC and 782815-120-R-J1-PDC lines were cultured in 6C/Colon 1B media, which includes advanced DMEM/F-12 (Thermo Fisher Scientific, cat. 12634028), 10 mM HEPES (Thermo Fisher Scientific, cat. 15630080), 1X GlutaMAX supplement (Thermo Fisher Scientific, cat. 35050061), 0.1 mg/mL primocin (InvivoGen, San Diego, CA, cat. ant-pm-2), 10% defined fetal bovine serum, heat inactivated (HyClone Laboratories Inc., Logan, UT, cat. SH30070.03HI), 50% L-WRN conditioned media (ATCC, cat. CRL-3276), 1.25 mM N-Acetyl-L-cysteine (Sigma-Aldrich, cat. A9165), 10 mM nicotinamide (Sigma-Aldrich, cat. N0636), 1X B-27 supplement (Thermo Fisher Scientific, cat. 17504044), 1X N-2 supplement (Thermo Fisher Scientific, cat. 17502048), 50 ng/mL human EGF (Thermo Fisher Scientific, cat. PHG0311), and 10 microM Y-27632 dihydrochloride (Tocris Bioscience, cat. 1254). The K12877-001-R-J1-PDC line was cultured in 6I media, which includes all 6C/Colon 1B media plus 10 ng/mL human FGF-10 (PeproTech, cat. 100-26), 1 ng/mL human FGF-2 (PeproTech, cat. 100-18B), 1 µM prostaglandin E2 (Tocris Bioscience, cat. 2296), […] hydrocortisone (Sigma-Aldrich, cat. H4001), and […] bovine insulin (Sigma-Aldrich, cat. I6634). The K86415-001-R-J1-PDC line was cultured in 6D media, which includes all 6C/Colon 1B media components minus the L-WRN conditioned media. The 485176-168-R4-J1-PDC was cultured in PANC media, which includes all 6C/Colon 1B media plus 100 ng/mL human FGF-10 (PeproTech, cat. 100-26), 500 nM SB-431542 (Selleckchem, cat. S1067), and 10 nM gastrin (Tocris Bioscience, cat. 3006). […]",
  "note": "pIC50: −log10 of the molar value.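 Further: spheroids exposed to compound for seven days before viability readout.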",
  "data": [
    {"smiles": "Cc1nc(N2CCC3(CC2)COC(C)C3N)c(CO)nc1Sc1ccnc(N)c1Cl", "note": "(configuration not stated) + C#Cc1c(F)ccc2cc(O)cc(-c3ncc4c(N5CC6CCC(C5)N6)nc(OCC56CCCN5CC(F)C6)nc4c3F)c12", "values": [
      {"measurement": "pIC50", "setting": "second compound 0.0316 µM", "value": "< 5.00"},
      {"measurement": "pIC50", "setting": "second compound 0.1 µM", "value": "< 5.00"},
      {"measurement": "pIC50", "setting": "second compound 0.316 µM", "value": "< 5.00"},
      {"measurement": "pIC50", "setting": "second compound 1 µM", "value": "< 5.00"},
      {"measurement": "pIC50", "setting": "second compound 3.16 µM", "value": "< 5.00"},
      {"measurement": "pIC50", "setting": "second compound 10 µM", "value": "< 5.00"},
      {"measurement": "viability, T/C", "setting": "second compound 0.0316 µM, first compound 0.0316 µM", "value": 102, "unit": "%"},
      {"measurement": "viability, T/C", "setting": "second compound 0.0316 µM, first compound 0.1 µM", "value": 108, "unit": "%"},
      {"measurement": "viability, T/C", "setting": "second compound 0.0316 µM, first compound 0.316 µM", "value": 105, "unit": "%"},
      {"measurement": "viability, T/C", "setting": "second compound 0.0316 µM, first compound 1 µM", "value": 63.1, "unit": "%"},
      {"measurement": "viability, T/C", "setting": "second compound 0.0316 µM, first compound 3.16 µM", "value": 86, "unit": "%"},
      {"measurement": "viability, T/C", "setting": "second compound 0.0316 µM, first compound 10 µM", "value": 71.2, "unit": "%"},
      {"measurement": "viability, T/C", "setting": "second compound 0.1 µM, first compound 0.0316 µM", "value": 112, "unit": "%"},
      {"measurement": "viability, T/C", "setting": "second compound 0.1 µM, first compound 0.1 µM", "value": 90.8, "unit": "%"},
      {"measurement": "viability, T/C", "setting": "second compound 0.1 µM, first compound 0.316 µM", "value": 98.2, "unit": "%"},
      {"measurement": "viability, T/C", "setting": "second compound 0.1 µM, first compound 1 µM", "value": 88.8, "unit": "%"},
      {"measurement": "viability, T/C", "setting": "second compound 0.1 µM, first compound 3.16 µM", "value": 108, "unit": "%"},
      {"measurement": "viability, T/C", "setting": "second compound 0.1 µM, first compound 10 µM", "value": 86, "unit": "%"},
      {"measurement": "viability, T/C", "setting": "second compound 0.316 µM, first compound 0.0316 µM", "value": 94.3, "unit": "%"},
      {"measurement": "viability, T/C", "setting": "second compound 0.316 µM, first compound 0.1 µM", "value": 88, "unit": "%"},
      {"measurement": "viability, T/C", "setting": "second compound 0.316 µM, first compound 0.316 µM", "value": 101, "unit": "%"},
      {"measurement": "viability, T/C", "setting": "second compound 0.316 µM, first compound 1 µM", "value": 104, "unit": "%"},
      {"measurement": "viability, T/C", "setting": "second compound 0.316 µM, first compound 3.16 µM", "value": 104, "unit": "%"},
      {"measurement": "viability, T/C", "setting": "second compound 0.316 µM, first compound 10 µM", "value": 67.3, "unit": "%"},
      {"measurement": "viability, T/C", "setting": "second compound 1 µM, first compound 0.0316 µM", "value": 89.4, "unit": "%"},
      {"measurement": "viability, T/C", "setting": "second compound 1 µM, first compound 0.1 µM", "value": 94.6, "unit": "%"},
      {"measurement": "viability, T/C", "setting": "second compound 1 µM, first compound 0.316 µM", "value": 87, "unit": "%"},
      {"measurement": "viability, T/C", "setting": "second compound 1 µM, first compound 1 µM", "value": 83.2, "unit": "%"},
      {"measurement": "viability, T/C", "setting": "second compound 1 µM, first compound 3.16 µM", "value": 111, "unit": "%"},
      {"measurement": "viability, T/C", "setting": "second compound 1 µM, first compound 10 µM", "value": 71.9, "unit": "%"},
      {"measurement": "viability, T/C", "setting": "second compound 3.16 µM, first compound 0.0316 µM", "value": 59.6, "unit": "%"},
      {"measurement": "viability, T/C", "setting": "second compound 3.16 µM, first compound 0.1 µM", "value": 108, "unit": "%"},
      {"measurement": "viability, T/C", "setting": "second compound 3.16 µM, first compound 0.316 µM", "value": 101, "unit": "%"},
      {"measurement": "viability, T/C", "setting": "second compound 3.16 µM, first compound 1 µM", "value": 62.2, "unit": "%"},
      {"measurement": "viability, T/C", "setting": "second compound 3.16 µM, first compound 3.16 µM", "value": 114, "unit": "%"},
      {"measurement": "viability, T/C", "setting": "second compound 3.16 µM, first compound 10 µM", "value": 80.3, "unit": "%"},
      {"measurement": "viability, T/C", "setting": "second compound 10 µM, first compound 0.0316 µM", "value": 75.4, "unit": "%"},
      {"measurement": "viability, T/C", "setting": "second compound 10 µM, first compound 0.1 µM", "value": 43.9, "unit": "%"},
      {"measurement": "viability, T/C", "setting": "second compound 10 µM, first compound 0.316 µM", "value": 70.3, "unit": "%"},
      {"measurement": "viability, T/C", "setting": "second compound 10 µM, first compound 1 µM", "value": 74.1, "unit": "%"},
      {"measurement": "viability, T/C", "setting": "second compound 10 µM, first compound 3.16 µM", "value": 73, "unit": "%"},
      {"measurement": "viability, T/C", "setting": "second compound 10 µM, first compound 10 µM", "value": 77, "unit": "%"}
    ]}
  ]
}
